Experimental data: patent US20070167631A1, “Novel herbicides” (priority 2003, published 2007)

Assays:
Solanum = experiment: Microscreen, post-emergence herbicidal action (Example B3); format: in vivo; conditions: 250 g/ha, evaluated after 9 or 13 days, scale of eleven ratings (10=total damage, 0=no action)
Protocol: (§1) Example B3 Microscreen, Post-Emergence Herbicidal Action Monocotyledonous and dicotyledonous test plants are sown in sterilised standard soil in seed trays each having 96 cells. […] The plants are grown on in the climatic chamber until the test is evaluated after 9 or 13 days. The test is evaluated in accordance with a scale of eleven ratings (10=total damage, 0=no action). Ratings of from 10 to 7 (especially from 10 to 8) indicate very good to good herbicidal action.

Nasturtium = experiment: as above; format: in vivo; conditions: 250 g/ha, evaluated after 9 or 13 days, scale of eleven ratings (10=total damage, 0=no action)
Protocol: as §1

Amaranthus [1] = experiment: as above; format: in vivo; conditions: 250 g/ha, evaluated after 9 or 13 days, scale of eleven ratings (10=total damage, 0=no action)
Protocol: as §1

Digitaria [2] = experiment: as above; format: in vivo; conditions: 250 g/ha, evaluated after 9 or 13 days, scale of eleven ratings (10=total damage, 0=no action)
Protocol: (§2) Example B3 Microscreen, Post-Emergence Herbicidal Action Monocotyledonous and dicotyledonous test plants are sown in sterilised standard soil in seed trays each having 96 cells. After 8 to 9 days' cultivation under controlled conditions in a climatic chamber (cultivation at 17/23° C.; 13 hours' light; 50-60% humidity; after application at 19/24° C.), the plants are treated with an aqueous spray solution of 1000 mg/l of the active ingredient used ([…]; incl. 10% DMSO as solvent). The plants are grown on in the climatic chamber until the test is evaluated after 9 or 13 days. The test is evaluated in accordance with a scale of eleven ratings (10=total damage, 0=no action). Ratings of from 10 to 7 (especially from 10 to 8) indicate very good to good herbicidal action.

Stellaria [3] = experiment: as above; format: in vivo; conditions: 250 g/ha, evaluated after 9 or 13 days, scale of eleven ratings (10=total damage, 0=no action)
Protocol: as §2

Polygonum = experiment: Comparison test with prior art compound B, post-emergence herbicidal action (Example B5); format: in vivo; conditions: 125 g/ha, rating scale 10=total damage, 0=no action
From the text: (§3) The post-emergence herbicidal action of compound no. 1.096 according to the invention was compared with compound B, which is described as compound no. 2.088 on page 83,

Ipomea [4] = experiment: as above; format: in vivo; conditions: 125 g/ha, rating scale 10=total damage, 0=no action
From the text: as §3

Stellaria [5] = experiment: as above; format: in vivo; conditions: 125 g/ha, rating scale 10=total damage, 0=no action
From the text: as §3

Sida [6] = experiment: as above; format: in vivo; conditions: 125 g/ha, rating scale 10=total damage, 0=no action
From the text: as §3

Galium [7] = experiment: as above; format: in vivo; conditions: 125 g/ha, rating scale 10=total damage, 0=no action
From the text: as §3

Bromus = experiment: as above; format: in vivo; conditions: 125 g/ha, rating scale 10=total damage, 0=no action
From the text: as §3

Wheat [8] = experiment: as above; format: in vivo; conditions: 125 g/ha
From the text: as §3

Maize [9] = experiment: as above; format: in vivo; conditions: 125 g/ha
From the text: as §3

Wheat [10] = experiment: Comparison test with prior art compound A, post-emergence herbicidal action (Example B4); format: in vivo; conditions: 125 g/ha, crop plant, rating scale 10=total damage, 0=no action
From the text: (§4) The post-emergence herbicidal action of compound no. 1.095 according to the invention was compared with compound A, which is described as compound no.

Maize [11] = experiment: as above; format: in vivo; conditions: 125 g/ha, crop plant, rating scale 10=total damage, 0=no action
From the text: as §4

Stellaria [12] = experiment: as above; format: in vivo; conditions: 125 g/ha, rating scale 10=total damage, 0=no action
From the text: as §4

Sinapis = experiment: as above; format: in vivo; conditions: 125 g/ha, rating scale 10=total damage, 0=no action
From the text: as §4

Sida [13] = experiment: as above; format: in vivo; conditions: 125 g/ha, rating scale 10=total damage, 0=no action
From the text: as §4

Amaranthus [14] = experiment: as above; format: in vivo; conditions: 125 g/ha, rating scale 10=total damage, 0=no action
From the text: as §4

Ipomea [15] = experiment: as above; format: in vivo; conditions: 125 g/ha, rating scale 10=total damage, 0=no action
From the text: as §4

Galium [16] = experiment: as above; format: in vivo; conditions: 125 g/ha, rating scale 10=total damage, 0=no action
From the text: as §4

Echinochloa [17] = experiment: Post-emergence herbicidal action (Example B2); format: in vivo; conditions: 250 g/ha, after about 18 days, rating scale 10=total damage, 0=no action
From the text: (§5) Monocotyledonous and dicotyledonous test plants are cultivated in a greenhouse in standard soil in plastic pots and, at the 4- to 6-leaf stage, are sprayed with an aqueous suspension of the test compounds of formula I prepared from a 25% wettable powder (Example F3, b) according to WO 97/34485) or with an emulsion of the test compounds of formula I prepared from a 25% emulsifiable concentrate (Example F1, c) according to WO 97/34485), corresponding to concentrations of 125 and 250 g of active ingredient per hectare (500 litres of water per ha). The test plants are then grown on in the greenhouse under optimum conditions. After a test duration of about 18 days, the test is evaluated in accordance with a scale of eleven ratings (10=total damage, 0=no action). Ratings of from 10 to 7 (especially from 10 to 8) indicate very good to good herbicidal action.

Amaranthus [18] = experiment: Post-emergence herbicidal action (Example B2); format: in vivo; conditions: 250 g/ha, after about 18 days, rating scale 10=total damage, 0=no action
From the text: as §5

Xanthium = experiment: Post-emergence herbicidal action (Example B2); format: in vivo; conditions: 250 g/ha, after about 18 days, rating scale 10=total damage, 0=no action
From the text: as §5

Chenopodium [19] = experiment: Post-emergence herbicidal action (Example B2); format: in vivo; conditions: 250 g/ha, after about 18 days, rating scale 10=total damage, 0=no action
From the text: as §5

Euphorbia = experiment: Post-emergence herbicidal action (Example B2); format: in vivo; conditions: 250 g/ha, after about 18 days, rating scale 10=total damage, 0=no action
From the text: as §5

Stellaria [20] = experiment: Post-emergence herbicidal action (Example B2); format: in vivo; conditions: 250 g/ha, after about 18 days, rating scale 10=total damage, 0=no action
From the text: as §5

Panicum [21] = experiment: Post-emergence herbicidal action (Example B2); format: in vivo; conditions: 250 g/ha, after about 18 days, rating scale 10=total damage, 0=no action
From the text: as §5

Digitaria [22] = experiment: Pre-emergence herbicidal action (Example B1); format: in vivo; conditions: 250 g/ha, after 4 weeks, rating scale 10=total damage, 0=no action
Protocol: (§6) Monocotyledonous and dicotyledonous test plants are sown in standard soil in pots or seed trays. Immediately after sowing, the test compounds, in the form of an aqueous suspension (prepared from a wettable powder (Example F3, b) according to WO 97/34485) or in the form of an emulsion (prepared from an emulsifiable concentrate (Example F1, c) according to WO 97/34485), are applied by spraying in a concentration of 250 g/ha. The test plants are then grown in a greenhouse under optimum conditions. After a test duration of 4 weeks, the test is evaluated in accordance with a scale of eleven ratings (10=total damage, 0=no action). Ratings of from 10 to 7 (especially from 10 to 8) indicate very good to good herbicidal action.

Echinochloa [23] = experiment: Pre-emergence herbicidal action (Example B1); format: in vivo; conditions: 250 g/ha, after 4 weeks, rating scale 10=total damage, 0=no action
Protocol: as §6

Abutilon = experiment: Pre-emergence herbicidal action (Example B1); format: in vivo; conditions: 250 g/ha, after 4 weeks, rating scale 10=total damage, 0=no action
Protocol: as §6

Scirpus = experiment: Pre-emergence herbicidal action (Example B1); format: in vivo; conditions: 250 g/ha, after 4 weeks, rating scale 10=total damage, 0=no action
Protocol: as §6

Amaranthus [24] = experiment: Pre-emergence herbicidal action (Example B1); format: in vivo; conditions: 250 g/ha, after 4 weeks, rating scale 10=total damage, 0=no action
Protocol: as §6

Chenopodium [25] = experiment: Pre-emergence herbicidal action (Example B1); format: in vivo; conditions: 250 g/ha, after 4 weeks, rating scale 10=total damage, 0=no action
Protocol: as §6

Panicum [26] = experiment: Pre-emergence herbicidal action (Example B1); format: in vivo; conditions: 250 g/ha, after 4 weeks, rating scale 10=total damage, 0=no action
Protocol: as §6

[27] = crop plant, rating scale 10=total damage, 0=no action

SMILES | Post-emergence action: Echinochloa (Echinochloa [17]) | Post-emergence action: Amaranthus (Amaranthus [18]) | Post-emergence action: Xanthium (Xanthium) | Post-emergence action: Chenopodium (Chenopodium [19]) | Post-emergence action: Euphorbia (Euphorbia) | Post-emergence action: Stellaria (Stellaria [20]) | Post-emergence action: Panicum (Panicum [21]) | Pre-emergence action: Digitaria (Digitaria [22]) | Pre-emergence action: Echinochloa (Echinochloa [23]) | Pre-emergence action: Abutilon (Abutilon) | Pre-emergence action: Scirpus (Scirpus) | Pre-emergence action: Amaranthus (Amaranthus [24]) | Pre-emergence action: Chenopodium (Chenopodium [25]) | Pre-emergence action: Panicum (Panicum [26]) | further results
COc1nc(C(=O)C2=C(O)CCCC2=O)ccc1C(F)(F)F [Compound 1.096] | – | – | – | – | – | – | – | – | – | – | – | – | – | – | Solanum, herbicidal action rating (Solanum): 9; Nasturtium, herbicidal action rating (Nasturtium): 10; Amaranthus, herbicidal action rating (Amaranthus [1]): 9; Digitaria, herbicidal action rating (Digitaria [2]): 8; Stellaria, herbicidal action rating (Stellaria [3]): 9; melting point: 80 to 81 °C; Post-emergence herbicidal action: Polygonum (Polygonum): 8; Post-emergence herbicidal action: Ipomea (Ipomea [4]): 7; Post-emergence herbicidal action: Stellaria (Stellaria [5]): 8; Post-emergence herbicidal action: Sida (Sida [6]): 7; Post-emergence herbicidal action: Galium (Galium [7]): 8; Post-emergence herbicidal action: Bromus (Bromus): 5
COc1nc(C(=O)C2=C(O)C3CCC(C3)C2=O)ccc1C(F)(F)F (stereo not shown) [B, reference compound] | – | – | – | – | – | – | – | – | – | – | – | – | – | – | Post-emergence herbicidal action: Wheat (Wheat [8]; [27]): 2; phytotoxicity to wheat (Wheat [8]; post-emergence): 20%; Post-emergence herbicidal action: Maize (Maize [9]; [27]): 2; phytotoxicity to maize (Maize [9]; post-emergence): 20%; Post-emergence herbicidal action: Polygonum (Polygonum): 4; Post-emergence herbicidal action: Ipomea (Ipomea [4]): 6; Post-emergence herbicidal action: Stellaria (Stellaria [5]): 6; Post-emergence herbicidal action: Galium (Galium [7]): 4
O=C1CCCC(O)=C1C(=O)c1ncc(C(F)(F)F)cc1Cl [A, reference compound] | – | – | – | – | – | – | – | – | – | – | – | – | – | – | Post-emergence herbicidal action: Wheat (Wheat [10]): 0; Post-emergence herbicidal action: Maize (Maize [11]): 0; Post-emergence herbicidal action: Stellaria (Stellaria [12]): 9; Post-emergence herbicidal action: Sinapis (Sinapis): 6; Post-emergence herbicidal action: Sida (Sida [13]): 2
O=C1CCCC(O)=C1C(=O)c1ccc(C(F)(F)F)c(Cl)n1 [Compound 1.095] | – | – | – | – | – | – | – | – | – | – | – | – | – | – | Solanum, herbicidal action rating (Solanum): 7; Nasturtium, herbicidal action rating (Nasturtium): 9; Amaranthus, herbicidal action rating (Amaranthus [1]): 7; Digitaria, herbicidal action rating (Digitaria [2]): 3; Stellaria, herbicidal action rating (Stellaria [3]): 7; Post-emergence herbicidal action: Wheat (Wheat [10]): 0; Post-emergence herbicidal action: Maize (Maize [11]): 0; Post-emergence herbicidal action: Amaranthus (Amaranthus [14]): 7; Post-emergence herbicidal action: Ipomea (Ipomea [15]): 7; Post-emergence herbicidal action: Stellaria (Stellaria [12]): 8; Post-emergence herbicidal action: Sinapis (Sinapis): 7; Post-emergence herbicidal action: Sida (Sida [13]): 5; Post-emergence herbicidal action: Galium (Galium [16]): 6
COC(COc1nc(C(=O)C2=C(O)CCCC2=O)ccc1C(F)(F)F)OC [Compound 1.012] | 8 | 9 | 8 | 8 | 9 | 7 | 7 | 9 | 5 | 10 | 7 | 5 | 0 | 10 | –
CC1CCC(O)=C(C(=O)c2ccc(C(F)(F)F)c(N3CCOCC3)n2)C1=O (stereo not shown) [Compound 3.071] | 8 | 8 | 8 | 10 | 7 | 8 | 9 | 10 | 10 | 9 | 8 | 8 | 6 | 10 | –
CC1(C)C(=O)C(C(=O)c2ccc(C(F)(F)F)c(N3CCSCC3)n2)=C(O)C(C)(C)C1=O [Compound 2.078] | 8 | 7 | 7 | 10 | 7 | 10 | 5 | 10 | 10 | 10 | 0 | 8 | 10 | 10 | –
CC1(C)C(=O)C(C(=O)c2ccc(C(F)(F)F)c(OC3CCOC3)n2)=C(O)C(C)(C)C1=O (stereo not shown) [Compound 2.021] | 9 | 9 | 8 | 8 | 9 | 7 | 9 | 3 | 0 | 9 | 7 | 7 | 9 | 9 | –
